{"source": "patent US20220323454A1", "about": "“PHENOTHIAZINES AND THEIR DERIVATIVES FOR USE AS A MEDICAMENT” (Guangzhou Virotech Pharmaceutical Co., Ltd., priority 2019, published 2022)", "key": {"[1]": {"test_system": "EG-7-PD-L1 cells", "test": "CTL killing of EG-7-PD-L1 target cells (PI staining, flow cytometry)", "format": "cell-based, mouse", "conditions": "CTL : EG-7-PD-L1 5:1; 1 μM, 5 μM, 10 μM MTC, 4 hours; FIG. 4A", "description": "(1) The preparation of CTL cells was described in Example 2.\n(2) EG-7-PD-L1 cells were labeled with 5 nM CFSE. CTL cells and EG-7-PD-L1 were mixed at a ratio of 5:1, treated with 1 μM, 5 μM, and 10 μM MTC, respectively, for 4 hours, and then stained with 10 μg/mL PI. The apoptosis of target cells EG-7-PD-L1 was detected by flow cytometry, and then the killing ability of CTL cells to target cells was assessed."}, "[2]": {"molecular_target": "T1, PD-1 recruitment of SHP2 (Homo sapiens, UniProt Q06124+Q15116)", "T1 construct": "expressed in transfected cells", "T1 sequence (Q15116 25-288)": "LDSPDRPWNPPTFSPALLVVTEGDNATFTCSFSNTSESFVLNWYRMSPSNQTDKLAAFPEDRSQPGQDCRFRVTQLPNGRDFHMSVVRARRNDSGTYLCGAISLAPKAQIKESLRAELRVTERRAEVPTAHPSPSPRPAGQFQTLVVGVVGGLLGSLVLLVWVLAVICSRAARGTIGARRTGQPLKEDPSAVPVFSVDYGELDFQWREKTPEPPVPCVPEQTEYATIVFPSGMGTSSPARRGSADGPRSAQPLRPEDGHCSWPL", "T1 sequence (Q06124 whole entry)": "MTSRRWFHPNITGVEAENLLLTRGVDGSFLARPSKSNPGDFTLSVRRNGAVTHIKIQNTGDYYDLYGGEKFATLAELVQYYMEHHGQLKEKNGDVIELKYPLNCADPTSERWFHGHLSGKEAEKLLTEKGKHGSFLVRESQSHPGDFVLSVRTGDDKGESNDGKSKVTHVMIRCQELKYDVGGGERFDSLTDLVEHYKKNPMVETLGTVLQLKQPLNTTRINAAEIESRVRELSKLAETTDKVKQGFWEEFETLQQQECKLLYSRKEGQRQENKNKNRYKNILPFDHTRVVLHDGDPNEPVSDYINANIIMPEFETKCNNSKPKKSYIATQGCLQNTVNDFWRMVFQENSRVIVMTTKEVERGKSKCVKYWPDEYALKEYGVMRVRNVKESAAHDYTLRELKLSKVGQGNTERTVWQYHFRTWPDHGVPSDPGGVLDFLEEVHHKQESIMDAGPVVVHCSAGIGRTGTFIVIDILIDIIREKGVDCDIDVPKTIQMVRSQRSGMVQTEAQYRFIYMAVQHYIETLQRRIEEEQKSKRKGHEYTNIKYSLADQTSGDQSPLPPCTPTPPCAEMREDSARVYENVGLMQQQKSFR", "test": "Co-IP of PD-1-Flag and SHP2 in 293T cells", "format": "cell-based", "conditions": "293T co-transfected with PD-1-Flag and SHP2 plasmids, MTC at different concentrations; FIG. 7C", "description": "(3) The PD-1-Flag plasmid and SHP2 plasmid were co-transfected in 293T cells, and the cells were then treated with MTC at different concentrations. The ability of PD-1 to recruit SHP2 was detected by Co-IP."}, "[3]": {"test_system": "EL4-OVA-mPDL1 cells", "test": "EL4-OVA-mPDL1 subcutaneous transplanted tumor in Rag1−/− mice given CTL cells", "format": "in vivo, mouse", "description": "(1) Lymphoma cells overexpressing chicken ovalbumin OVA and mouse PD-L1, namely EL4-OVA-mPDL1 cells, were resuspended in BD Matrigel, in which, for one side of one mouse, 2×10^6 cells were resuspended in 100 μl BD Matrigel.\n(2) The mixture of cells and Matrigel was inoculated into the left and right flanks of Rag1−/− mice subcutaneously, each at a dosage of 100 μl.\n(3) When the tumor was fixed about 5 days after inoculation, activated OT-1 T cells (i.e., 2×10^6 CTL cells/mouse) were injected through the tail vein, and the mice were divided into 3 groups, namely the CTL cell group, the CTL cell +10 mg/kg/2 days PD-1 antibody group, and the CTL cell +40 mg/kg/day MTC group.\n(4) The length and width of the transplanted tumor of each group of mice were measured from the day of tail vein injection of CTL cells, and every other day, and the tumor volume was calculated as length×width^2/2 (FIG. 5A)."}, "[4]": {"test_system": "Jurkat-PD-1-NFAT-LUC cells", "test": "NFAT-luciferase activity in Jurkat-PD-1-NFAT-LUC cells co-cultured with Raji-PD-L1 cells", "format": "cell-based, human", "conditions": "4.86 μM MTC or LMT added with Raji-PD-L1 cells, 6 h co-culture; FIG. 1E", "description": "(1) Jurkat cells were used to construct a stable cell line expressing PD-1. The pCAGin-PD-1 plasmid was electroporated into Jurkat cells, which were then screened with 900 μg/mL G418 antibiotic and flow-sorted for single clones. Jurkat-PD-1 cells were then electroporated into a DNA fragment that controls the luciferase gene through the NFAT-binding site (referred to as NFAT-LUC). A single clone was then flow-sorted and named clone 5. Using this cell, the expression level of IL-2 can be measured by the activity of luciferase. Raji cells stably expressing PD-L1 were constructed, and the pCDNA-PD-L1 plasmid was electroporated into the Raji cells, followed by screening with 2 μg/mL puromycin, and then flow-sorted single clones and named clone 1.\n(4) A 96-well plate was coated with 10 μg/mL CD3 antibody/10 μg/mL CD28 antibody overnight at 4° C., and excess antibody then washed off with PBS. Raji cells or Raji-PD-L1 cells were co-cultured with Jurkat-PD-1-NFAT-LUC cells at a ratio of 1:1, or to a mixture of Raji-PD-L1 cells and Jurkat-PD-1-NFAT-LUC cells at a ratio of 1:1 was added 4.86 μM MTC or LMT. Luciferase substrate was added after 6h co-culture and the luciferase activity was measured by a microplate reader."}, "[5]": {"test_system": "OT-1 CTL cells", "test": "CTL cell division under PD-L1 protein inhibition (CFSE, flow cytometry)", "format": "cell-based", "conditions": "100 nM MTC; 10 nM SIINFEKL, 10 nM IL-2, 10 μg/mL mouse PD-L1 protein; 24, 48, 72 hours; FIG. 2B", "description": "(1) Preparation of CTL cells: The spleens of OT1 mice were obtained, ground and added with red blood cell lysate, to prepare single-cell suspension. The culture medium was 1640+10% FBS+50 μM βME+10 nM IL-2. Cell density was adjusted to about 2-4 million/mL. The cells were added with 10 nM OVA257-264, and cultured in a cell incubator at 37° C., 5% CO2. From the day of CTL preparation, cells were stained with FITC-labeled PD-1 antibody every day, and the changes of PD-1 expression on the cell surfaces were detected by flow cytometry.\n(2) The CTL cells were labeled with 5 nM CFSE, stimulated by 10 nM SIINFEKL and 10 nM IL-2, and added with 10 μg/mL mouse PD-L1 protein. The experimental group was also added with 100 nM MTC and stimulated for 24, 48, and 72 hours. The effects of PD-L1 protein and MTC on CTL cell division were observed by flow cytometry."}, "[6]": {"molecular_target": "T1, PD-1 recruitment of SHP2", "test": "Split-luciferase PD-1-Cluc / Nluc-SHP2 interaction in 293T cells", "format": "cell-based", "conditions": "293T stable cell line, different concentrations of MTC, 6 hours; FIG. 7A", "from_the_text": "This example preliminarily explored the mechanism by which MTC inhibits PD-1 signaling, and assessed the ability of MTC to affect PD-1 recruitment of SHP2. The binding of PD-1 to ligands can recruit SHP2 protein to the surrounding T cell receptors, thereby inhibiting the activation of T cell receptor proximal kinases, reducing Lck-mediated phosphorylation of ZAP-70 protein and the initiation of downstream signaling pathways. Luciferase can be split into two fragments, N-terminal and C-terminal. When the two fragments are fused with other proteins, the activity of luciferase can be detected if the N-terminal and C-terminal luciferase fragments are close due to the interaction of their fusion proteins. Therefore, the strength of the interaction of the fused proteins can indirectly detected by measuring the activity of luciferase.\n(1) Fusion genes PD-1-Cluc and Nluc-SHP2 were transfected into 293T cells with liposomes to construct a stable cell line. The cells were added with different concentrations of MTC and cultured for 6 hours to observe the effect of MTC on the reading of luciferase."}}, "data": [{"smiles": "CN(C)c1ccc2nc3ccc(N(C)C)cc3[s+]c2c1", "note": "[MTC, 3,7-bis(dimethylamino)-phenothiazine-5-ium chloride]", "values": [{"measurement": "killing ability of CTL cells against EG-7-PD-L1", "setting": "[1]", "value": "significantly restored"}, {"measurement": "binding of PD-1 to SHP2 (Co-IP)", "setting": "[2]", "value": "prevented the binding of PD-1 to SHP2"}, {"measurement": "tumor growth (tumor volume and tumor weight)", "setting": "[3]; CTL cells by tail vein, MTC 40 mg/kg/day intragastric, PD-1 antibody 10 mg/kg/2 days intraperitoneal, vs CTL cell-only group, FIGS. 5B, C, D", "value": "strongly inhibited tumor growth"}, {"measurement": "therapeutic effect of CTL+MTC compared with CTL+PD-1 antibody treatment group", "setting": "[3]; MTC 40 mg/kg/day vs PD-1 antibody 10 mg/kg/2 days", "value": "better therapeutic effect"}, {"measurement": "luciferase activity", "setting": "[4]", "value": "increased dramatically"}, {"measurement": "CTL cell division inhibited by PD-L1 protein", "setting": "[5]", "value": "reversed the inhibition"}, {"measurement": "readings of luciferase (PD-1-Cluc / Nluc-SHP2 interaction)", "setting": "[6]", "value": "reduce the readings of luciferase"}]}]}
